Measurements taken from patent US9145392B2, “Imidazole amines as modulators of kinase activity” (Merck Patent GmbH, priority 2011, dated 2015).
pIC50: −log10 of the molar value.

What was measured:
P70S6K (T412E mutant) = P70S6K (T412E mutant) (Homo sapiens (Human), UniProt P23443, T412E); assay: P70S6K enzyme assay; assay type: biochemical; settings: read-out: IC50 p70S6K
In short: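 Phosphorylated product and substrate peptide separated by microfluidic capillary electrophoresis (Caliper LabChip 3000), product peaks resolving before substrate.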

His-AKT (Full Length) = His-AKT (Full Length) (Homo sapiens (Human), UniProt P31749); assay: AKT enzyme assay; assay type: biochemical; settings: read-out: IC50 AKT
Chain of His-AKT (Full Length) (P31749 whole entry): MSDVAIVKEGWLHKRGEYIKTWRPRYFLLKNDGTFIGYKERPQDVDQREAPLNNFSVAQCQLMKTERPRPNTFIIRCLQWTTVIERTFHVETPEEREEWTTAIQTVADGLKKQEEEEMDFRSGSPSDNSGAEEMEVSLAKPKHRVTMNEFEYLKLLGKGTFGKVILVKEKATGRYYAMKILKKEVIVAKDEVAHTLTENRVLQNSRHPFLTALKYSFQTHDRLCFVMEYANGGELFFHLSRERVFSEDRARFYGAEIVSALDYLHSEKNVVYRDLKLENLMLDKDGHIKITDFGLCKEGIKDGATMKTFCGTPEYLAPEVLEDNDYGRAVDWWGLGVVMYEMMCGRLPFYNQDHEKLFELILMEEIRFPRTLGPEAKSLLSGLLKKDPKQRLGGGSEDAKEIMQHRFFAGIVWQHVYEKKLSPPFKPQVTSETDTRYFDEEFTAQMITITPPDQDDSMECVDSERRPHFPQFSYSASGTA

Chain of P70S6K (T412E mutant) (P23443 whole entry T412E): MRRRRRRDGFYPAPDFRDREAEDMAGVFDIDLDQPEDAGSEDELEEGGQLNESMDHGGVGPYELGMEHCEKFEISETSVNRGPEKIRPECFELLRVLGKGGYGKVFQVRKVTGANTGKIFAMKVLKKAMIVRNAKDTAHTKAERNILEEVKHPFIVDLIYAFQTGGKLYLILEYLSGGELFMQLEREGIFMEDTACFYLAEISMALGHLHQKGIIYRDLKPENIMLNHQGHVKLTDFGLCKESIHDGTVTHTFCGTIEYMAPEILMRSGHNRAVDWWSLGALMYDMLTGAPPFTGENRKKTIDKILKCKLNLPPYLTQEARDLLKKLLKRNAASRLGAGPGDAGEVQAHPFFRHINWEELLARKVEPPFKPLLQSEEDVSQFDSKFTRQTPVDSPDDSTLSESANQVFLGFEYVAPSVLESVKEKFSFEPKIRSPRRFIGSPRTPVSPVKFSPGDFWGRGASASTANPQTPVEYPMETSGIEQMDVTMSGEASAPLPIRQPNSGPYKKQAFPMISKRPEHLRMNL

| Compound | pIC50 (P70S6K (T412E mutant)) | pIC50 (His-AKT (Full Length)) |
| --- | --- | --- |
| N#Cc1c(N)ncnc1N1CCC(c2nc(-c3ccnc(C(F)(F)F)c3)cn2CCN2CCC2)CC1 [Compound 125, 4-amino-6-(4-(1-(2-(azetidin-1-yl)ethyl)-4-(2-(trifluoromethyl)pyridin-4-yl)-1H-imidazol-2-yl)piperidin-1-yl)pyrimidine-5-carbonitrile] | 8.82 | 8.01 |
| Cc1cc(-c2cn(CCNC3CCCC3)c(C3CCN(c4ncnc(N)c4C#N)CC3)n2)ccc1F [Compound 389, 4-Amino-6-{4-[1-(2-cyclopentylamino-ethyl)-4-(4-fluoro-3-methyl-phenyl)-1H-imidazol-2-yl]-piperidin-1-yl}-pyrimidine-5-carbonitrile] | 9.05 | 9.15 |
| CCc1c(N)ncnc1N1CCC(c2nc(-c3cccc(C(F)(F)F)c3)cn2CCN2CCC2)CC1 [Compound 277] | 8.49 | 7.74 |
| Nc1ncnc(N2CCC(c3nc(-c4ccnc(C(F)(F)F)c4)cn3CCNC3CC3)CC2)c1Cl [Compound 173, 5-chloro-6-(4-(1-(2-(cyclopropylamino)ethyl)-4-(2-(trifluoromethyl)pyridin-4-yl)-1H-imidazol-2-yl)piperidin-1-yl)pyrimidin-4-amine] | 8.55 | 8.44 |
| NC(=O)c1c(N)ncnc1N1CCC(c2nc(-c3cccc(F)c3)cn2CCN2CCCC2)CC1 [Compound 334] | 7.59 | 6.21 |
| Nc1ncnc(N2CCC(c3nc(-c4ccc(C(F)(F)F)cc4)cn3CCN3CCCC3)CC2)c1C1CCC1 [Compound 259] | 7.43 | 6.37 |
| CCc1c(N)ncnc1N1CCC(c2nc(-c3cnc(N(C)C)nc3)cn2CCN2CCC2)CC1 [Compound 352, 6-{4-[1-(2-Azetidin-1-yl-ethyl)-4-(2-dimethylamino-pyrimidin-5-yl)-1H-imidazol-2-yl]-piperidin-1-yl}-5-ethyl-pyrimidin-4-ylamine] | 6.51 | 5.24 |
| CCc1c(N)ncnc1N1CCC(c2nc(-c3ccc(F)c(Cl)c3)cn2CCN2CCCC2)CC1 [Compound 252] | 9.70 | 9.40 |
| Cc1cc(-c2cn(CCO)c(C3CCN(c4ncnc(N)c4C#N)CC3)n2)ccc1F [Compound 384, 4-Amino-6-{4-[4-(4-fluoro-3-methyl-phenyl)-1-(2-hydroxy-ethyl)-1H-imidazol-2-yl]-piperidin-1-yl}-pyrimidine-5-carbonitrile] | 8.74 | 6.36 |
| CC(C)Oc1c(N)ncnc1N1CCC(c2nc(-c3ccnc(C(F)(F)F)c3)cn2CCN2CCC2)CC1 [Compound 117, 6-(4-(1-(2-(azetidin-1-yl)ethyl)-4-(2-(trifluoromethyl)pyridin-4-yl)-1H-imidazol-2-yl)piperidin-1-yl)-5-isopropoxypyrimidin-4-amine] | 8.31 | 8.04 |
| CN(C)CCn1cc(-c2ccc(F)c(C(F)(F)F)c2)nc1C1CCN(c2ncnc(N)c2Br)CC1 [Compound 67, 5-Bromo-6-{4-[1-(2-dimethylamino-ethyl)-4-(4-fluoro-3-trifluoromethyl-phenyl)-1H-imidazol-2-yl]-piperidin-1-yl}-pyrimidin-4-ylamine] | 8.66 | 8.03 |
| Nc1ncnc(N2CCC(c3nc(-c4ccc(F)c(C(F)(F)F)c4)cn3CCN3CCC3)CC2)c1Br [Compound 217] | 8.82 | 8.64 |
| CC(C)(C)NCCn1cc(-c2ccc(F)c(C(F)(F)F)c2)nc1C1CCN(c2ncnc(N)c2C#N)CC1 [Compound 375, 4-Amino-6-{4-[1-(2-tert-butylamino-ethyl)-4-(4-fluoro-3-trifluoromethyl-phenyl)-1H-imidazol-2-yl]-piperidin-1-yl}-pyrimidine-5-carbonitrile] | 8.89 | 8.72 |
| Cc1cc(-c2cn(CCNCC3CC3)c(C3CCN(c4ncnc(N)c4C#N)CC3)n2)ccc1F [Compound 378, 4-Amino-6-{4-[1-[2-(cyclopropylmethyl-amino)-ethyl]-4-(4-fluoro-3-methyl-phenyl)-1H-imidazol-2-yl]-piperidin-1-yl}-pyrimidine-5-carbonitrile] | 9.10 | 8.64 |
| CC(C)NCCn1cc(-c2ccc(F)c(C(F)(F)F)c2)nc1C1CCN(c2ncnc(N)c2C#N)CC1 [Compound 369, 4-Amino-6-{4-[4-(4-fluoro-3-trifluoromethyl-phenyl)-1-(2-isopropylamino-ethyl)-1H-imidazol-2-yl]-piperidin-1-yl}-pyrimidine-5-carbonitrile] | 8.44 | 8.27 |
| C=Cc1c(N)ncnc1N1CCC(c2nc(-c3ccc(F)c(C(F)(F)F)c3)cn2CCN2CCCC2)CC1 [Compound 60] | 8.60 | 8.17 |
| CNCCn1cc(-c2ccc(F)c(C)c2)nc1C1CCN(c2ncnc(N)c2C(N)=O)CC1 [Compound 397, 4-Amino-6-{4-[4-(4-fluoro-3-methyl-phenyl)-1-(2-methylamino-ethyl)-1H-imidazol-2-yl]-piperidin-1-yl}-pyrimidine-5-carboxylic acid amide] | 8.60 | 7.80 |
| CNCCn1cc(-c2ccnc(C(F)(F)F)c2)nc1C1CCN(c2ncnc(N)c2C#N)CC1 [Compound 169, 4-amino-6-(4-(1-(2-(methylamino)ethyl)-4-(2-(trifluoromethyl)pyridin-4-yl)-1H-imidazol-2-yl)piperidin-1-yl)pyrimidine-5-carbonitrile] | 8.89 | 8.77 |
| CCc1c(N)ncnc1N1CCC(c2nc(-c3ccc(C(F)(F)F)c(F)c3)cn2CCN2CC[C@@H](F)C2)CC1 [Compound 246] | 8.77 | 7.60 |

| Compound | pIC50 (P70S6K (T412E mutant)) | pIC50 (His-AKT (Full Length)) |
| --- | --- | --- |
| Cc1c(N)ncnc1N1CCC(c2nc(-c3ccc(F)c(C(F)(F)F)c3)cn2CCN2CCCC2)CC1 [Compound 215] | 8.21 | 8.00 |
| N#Cc1c(N)ncnc1N1CCC(c2nc(-c3ccc(F)c(F)c3)cn2CCN2CCC2)CC1 [Compound 313] | 8.80 | 8.03 |
| Cc1cc(-c2cn(CCN(C)C)c(C3CCN(c4ncnc(N)c4OC(C)C)CC3)n2)ccc1F [Compound 294] | 8.89 | 8.72 |
| CN(C)CCn1cc(-c2ccc(F)c(C(F)(F)F)c2)nc1C1CCN(c2ncnc(N)c2-c2cnc(N)nc2)CC1 [Compound 71, 6′-{4-[1-(2-Dimethylamino-ethyl)-4-(4-fluoro-3-trifluoromethyl-phenyl)-1H-imidazol-2-yl]-piperidin-1-yl}-[5,5′]bipyrimidinyl-2,4′-diamine] | 8.25 | 6.35 |
| Nc1ncnc(N2CCC(c3nc(-c4ccc(F)c(C(F)(F)F)c4)cn3CCN3CCC3)CC2)c1N [Compound 284] | 7.97 | 7.29 |
| N#Cc1c(N)ncnc1N1CCC(c2nc(-c3ccccc3F)cn2CCN2CCC2)CC1 [Compound 353, 4-Amino-6-{4-[1-(2-azetidin-1-yl-ethyl)-4-(2-fluoro-phenyl)-1H-imidazol-2-yl]-piperidin-1-yl}-pyrimidine-5-carbonitrile] | 7.85 | 6.85 |
| Cc1ccc(-c2cn(CCN3CCC3)c(C3CCN(c4ncnc(N)c4C(N)=O)CC3)n2)cc1Cl [Compound 346] | 8.41 | 6.66 |
| C=Cc1c(N)ncnc1N1CCC(c2nc(-c3ccc(F)c(C(F)(F)F)c3)cn2CCN(C)C)CC1 [Compound 73, 6-{4-[1-(2-Dimethylamino-ethyl)-4-(4-fluoro-3-trifluoromethyl-phenyl)-1H-imidazol-2-yl]-piperidin-1-yl}-5-vinyl-pyrimidin-4-ylamine] | 8.57 | 8.10 |
| CN(C)CCN(C)CCn1cc(-c2ccc(F)c(C(F)(F)F)c2)nc1C1CCN(c2ncnc(N)c2C#N)CC1 [Compound 362, 4-Amino-6-{4-[1-{2-[(2-dimethylamino-ethyl)-methyl-amino]-ethyl}-4-(4-fluoro-3-trifluoromethyl-phenyl)-1H-imidazol-2-yl]-piperidin-1-yl}-pyrimidine-5-carbonitrile] | 8.39 | 7.12 |
| CCc1c(N)ncnc1N1CCC(c2nc(-c3ccc(C(F)(F)F)cc3)cn2CCN2CCCC2)CC1 [Compound 271] | 7.92 | 6.74 |
| Cc1ccc(-c2cn(CCN3CCC3)c(C3CCN(c4ncnc(N)c4C#N)CC3)n2)cc1C(F)(F)F [Compound 316] | 9.10 | 7.62 |
| CCc1c(N)ncnc1N1CCC(c2nc(-c3ccc(C(F)(F)F)c(F)c3)cn2CCN2CCC(F)(F)CC2)CC1 [Compound 247] | 8.26 | 6.28 |
| CN(C)CCn1cc(-c2ccc(F)c(C(F)(F)F)c2)nc1C1CCN(c2ncnc(N)c2CCC2CC2)CC1 [Compound 83, 5-(2-Cyclopropylethyl)-6-(4-(1-(2-(dimethylamino)ethyl)-4-(4-fluoro-3-(trifluoromethyl)phenyl)-1H-imidazol-2-yl)piperidin-1-yl)pyrimidin-4-amine] | 7.70 | 6.72 |
| Cn1cc(-c2ccc(F)c(C(F)(F)F)c2)nc1C1CCN(c2ncnc(N)c2-c2ccc(C#N)cc2)CC1 [Compound 17, 4-(4-Amino-6-{4-[4-(4-fluoro-3-trifluoromethyl-phenyl)-1-methyl-1H-imidazol-2-yl]-piperidin-1-yl}-pyrimidin-5-yl)-benzonitrile] | 8.57 | 8.57 |
| Nc1cc(N2CCC(c3nc(-c4ccc(F)c(C(F)(F)F)c4)cn3CCN3CCC3)CC2)ncn1 [Compound 221] | 7.68 | 7.15 |
| NC(=O)c1c(N)ncnc1N1CCC(c2nc(-c3ccc(F)c(Cl)c3)cn2CCN2CCC2)CC1 [Compound 79, 4-Amino-6-{4-[1-(2-azetidin-1-yl-ethyl)-4-(3-chloro-4-fluoro-phenyl)-1H-imidazol-2-yl]-piperidin-1-yl}-pyrimidine-5-carboxylic acid amide] | 9.05 | 8.12 |
| Nc1ncnc(N2CCC(c3nc(-c4ccc(F)c(C(F)(F)F)c4)cn3CCN3CCC3)CC2)c1[N+](=O)[O-] [Compound 283] | 8.85 | 8.57 |
| NC(=O)c1c(N)ncnc1N1CCC(c2nc(-c3ccc(F)c(F)c3)cn2CCN2CCCC2)CC1 [Compound 329] | 7.85 | 6.92 |
